Assay results from EP0377642B1, “HERBICIDES FOR WEED CONTROL IN RICE” (E.I. DU PONT DE NEMOURS AND COMPANY, priority 1987, dated 1989).
Like-named read-outs stand apart in the source and are kept apart here.

Experiments:
Assay type in all cases: in vivo
rice [1] = assay: Effects in combination with Thiobencarb and Bensulfuron Methyl on rice growth (Table 22); settings: rate 75 g ai/ha; var. Koshihikari, applied 7 days after transplanting, rated 21 days after application
Text: (§1) Methyl 2-[[[[(4-methoxy-6-methyl-1,3,5-triazin-2-yl)amino]carbonyl]amino]sulfonyl]benzoate (Compound 1) and mixtures thereof with other compounds were applied as a spray (using a hand sprayer) to rice (either transplanted or direct seeded) in several rice growing areas in Southeast Asia and in the U.S. Tables 1-28 contain the results of these tests and clearly exemplify the utility of this invention. The details of each application are included in the appropriate table. [drawing 2]

FIMBRISTYLIS MILIACEA [2] = assay: Herbicidal efficacy alone and with 2,4-D in Thailand (Table 3); settings: 600 GAI/HA, 6 weeks after application
Text: as §1

Sphenoclea zeylanica [3] = assay: Field test applied at 7 DAS in direct seeded rice (Table 11); settings: 1,500 GM.A.I./HA, scale 0-10
Text: as §1

Cyperus difformis = assay: as above; settings: 1,500 GM.A.I./HA, scale 0-10
Text: as §1

direct seeded rice = settings: 1,500 GM.A.I./HA; for PHYTO at 2WAA: scale 0-10
Text: as §1

FIMBRISTYLIS MILIACEA [4] = assay: Field test applied at 18 DAS in direct seeded rice (Table 12); settings: 1,500 GM.A.I./HA, scale 0-10
Text: as §1

Sphenoclea zeylanica [5] = assay: as above; settings: 1,500 GM.A.I./HA, scale 0-10
Text: as §1

Cyperus iria [6] = assay: as above; settings: 1,500 GM.A.I./HA, scale 0-10
Text: as §1

Jussiaea linifolia = assay: as above; settings: 1,500 GM.A.I./HA, scale 0-10
Text: as §1

rice [7] = assay: Effects on rice growth in Thailand, phytotoxicity (Table 2); settings: 600 GAI/HA, scale 0-10
Text: as §1

rice [8] = assay: Effects on rice growth in Thailand, phytotoxicity (Table 4); settings: 600 GAI/HA, scale 0-10
Text: as §1

Sphenoclea zeylanica [9] = assay: Field test applied at 25 DAS in direct seeded rice (Table 13); settings: 1,500 GM.A.I./HA, scale 0-10
Text: as §1

Cyperus iria [10] = assay: as above; settings: 1,500 GM.A.I./HA, scale 0-10
Text: as §1

weeds = assay: Greenhouse test of Compound 1 and Compound 2, herbicidal efficacy (Table 26); settings: rated 24 days after treatment; for % CONTROL OR INJURY AT: Alisma triviale; for % CONTROL OR INJURY AP: Alternanthera philoxeroides; for % CONTROL OR INJURY CD: Cyperus difformis; for % CONTROL OR INJURY SR: Sagittaria rigida
Text: as §1

[11] = tested on: transplanted rice (var. Nihonbare); assay: Crop tolerance of transplanted rice, combinations with Thiobencarb, Dimepiperate, Esprocarb and Dymron (Table 15); settings: in vivo
Text: as §1
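Wherever YIELD is given: yield in Tons/ha.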

COC(=O)c1ccccc1CS(=O)(=O)NC(=O)Nc1nc(OC)cc(OC)n1
CROP TOLERANCE DW (Dry weight relative to untreated check) (rice [1]): 76%
CROP TOLERANCE PH (Plant height relative to untreated check) (rice [1]): 84%
CROP TOLERANCE VA (Visual crop injury) (rice [1]): 3.5%

CCCCOC(=O)COc1ccc(Cl)cc1Cl [2,4-D (BUTYL ESTER), reference compound]
FIMBRISTYLIS MILIACEA CONTROL (FIMBRISTYLIS MILIACEA [2]; applied 7 DAS): 94%
FIMBRISTYLIS MILIACEA CONTROL (FIMBRISTYLIS MILIACEA [2]; applied 14 DAS): 98%
FIMBRISTYLIS MILIACEA CONTROL (FIMBRISTYLIS MILIACEA [2]; applied 21 DAS): 60%
FIMBRISTYLIS MILIACEA CONTROL (FIMBRISTYLIS MILIACEA [2]; applied 28 DAS): 43%

O=C([O-])COc1ccc(Cl)cc1Cl.[Na+] [2,4-D (SODIUM SALT), 2,4-dichlorophenoxyacetic acid, sodium salt]
WEED CONTROL at 6 WAA SZ (Sphenoclea zeylanica [3]): 6.0
WEED CONTROL at 6 WAA CD (Cyperus difformis): 10
YIELD (direct seeded rice; 7 DAS): 4.13 TONS/HA
PHYTO at 2WAA (direct seeded rice; 7 DAS): 0
YIELD (direct seeded rice; 18 DAS): 4.59 TONS/HA
PHYTO at 2WAA (direct seeded rice; 18 DAS): 0
FIMBRISTYLIS MILIACEA CONTROL (FIMBRISTYLIS MILIACEA [2]; applied 7 DAS): 96%
FIMBRISTYLIS MILIACEA CONTROL (FIMBRISTYLIS MILIACEA [2]; applied 14 DAS): 95%
FIMBRISTYLIS MILIACEA CONTROL (FIMBRISTYLIS MILIACEA [2]; applied 21 DAS): 93%
FIMBRISTYLIS MILIACEA CONTROL (FIMBRISTYLIS MILIACEA [2]; applied 28 DAS): 98%
WEED CONTROL at 6 WAA FM (FIMBRISTYLIS MILIACEA [4]): 9.33
WEED CONTROL at 6 WAA SZ (Sphenoclea zeylanica [5]): 4.67
WEED CONTROL at 6 WAA CI (Cyperus iria [6]): 9.33
WEED CONTROL at 6 WAA JL (Jussiaea linifolia): 10
PHYTOTOXICITY (rice [7]; applied 7 DAS): 2.33
PHYTOTOXICITY (rice [7]; applied 14 DAS): 1.33
PHYTOTOXICITY (rice [7]; applied 21 DAS): 0
PHYTOTOXICITY (rice [7]; applied 28 DAS): 0
PHYTOTOXICITY (rice [8]; applied 7 DAS): 5.0
PHYTOTOXICITY (rice [8]; applied 14 DAS): 3.67
PHYTOTOXICITY (rice [8]; applied 21 DAS): 3.0
PHYTOTOXICITY (rice [8]; applied 28 DAS): 1
WEED CONTROL at 6 WAA SZ (Sphenoclea zeylanica [9]): 6.67
WEED CONTROL at 6 WAA CI (Cyperus iria [10]): 10

COC(=O)c1ccccc1S(=O)(=O)NC(=O)Nc1nc(OC)cc(OC)n1 [Compound 2, methyl 2-[[[[(4,6-dimethoxy-2-pyrimidinyl)amino]carbonyl]amino]sulfonyl]benzoate]
% CONTROL OR INJURY AT (weeds; rate 1 g ai/ha): 95%
% CONTROL OR INJURY AT (weeds; rate 2 g ai/ha): 95%
% CONTROL OR INJURY AT (weeds; rate 4 g ai/ha): 95%
% CONTROL OR INJURY AT (weeds; rate 8 g ai/ha): 95%
% CONTROL OR INJURY AP (weeds; rate 1 g ai/ha): 0%
% CONTROL OR INJURY AP (weeds; rate 2 g ai/ha): 0%
% CONTROL OR INJURY AP (weeds; rate 4 g ai/ha): 20%
% CONTROL OR INJURY AP (weeds; rate 8 g ai/ha): 30%
% CONTROL OR INJURY CD (weeds; rate 1 g ai/ha): 70%
% CONTROL OR INJURY CD (weeds; rate 2 g ai/ha): 80%
% CONTROL OR INJURY CD (weeds; rate 4 g ai/ha): 100%
% CONTROL OR INJURY CD (weeds; rate 8 g ai/ha): 100%
% CONTROL OR INJURY SR (weeds; rate 1 g ai/ha): 0%
% CONTROL OR INJURY SR (weeds; rate 2 g ai/ha): 0%
% CONTROL OR INJURY SR (weeds; rate 4 g ai/ha): 80%
% CONTROL OR INJURY SR (weeds; rate 8 g ai/ha): 80%

CC(C)(SC(=O)N1CCCCC1)c1ccccc1 [Dimepiperate, S-1-methyl-1-phenylethylpiperidine-1-carbothioate]
CROP TOLERANCE (Nihonbare) PH, plant height relative to untreated check [11]: 102%
CROP TOLERANCE (Nihonbare) VA, visual crop injury [11]: 0%
